Experimental data taken from PubChem BioAssay AID330 (DTP/NCI, 2004).
Where “and” joins values, the source holds several entries; their conditions need not be identical. Equal values may be shown once. Inconclusive results and toxic doses are left out. The calls were made as follows: active = survival T/C of 150% or more; inactive = T/C below 125% in these data.

Tested on: P388 leukemia ip, CD2F1 mice, survival T/C
Test: NCI In Vivo Anticancer Drug Screen. Data for tumor model P388 Leukemia (intraperitoneal) in CD2F1 (CDF1) mice
Details: endpoint: median survival time, higher = longer survival
In short: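 Mice carrying the transplanted tumor received test compound or vehicle. Survival was recorded in each group, and the value is the treated-group measurement divided by that of the vehicle-treated control group.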

[1] = dose: 6.25 mg/kg/injection, schedule: Q01DX009 (ip), vehicle: saline with Tween-80
[2] = dose: 12.5 mg/kg/injection, schedule: Q01DX009 (ip), vehicle: saline with Tween-80
[3] = dose: 25.0 mg/kg/injection, schedule: Q01DX009 (ip), vehicle: saline with Tween-80
[4] = dose: 12.5 mg/kg/injection, schedule: Q01DX009 (ip), vehicle: saline
[5] = dose: 50.0 mg/kg/injection, schedule: Q01DX009 (ip), vehicle: saline with Tween-80
[6] = dose: 100.0 mg/kg/injection, schedule: Q01DX009 (ip), vehicle: saline with Tween-80
[7] = dose: 50.0 mg/kg/injection, schedule: Q01DX009 (ip), vehicle: Klucel (hydroxypropylcellulose) (HPC)
[8] = dose: 100.0 mg/kg/injection, schedule: Q01DX009 (ip), vehicle: Klucel (hydroxypropylcellulose) (HPC)
[9] = dose: 200.0 mg/kg/injection, schedule: Q01DX009 (ip), vehicle: Klucel (hydroxypropylcellulose) (HPC)
[10] = dose: 50.0 mg/kg/injection, schedule: Q01DX009 (ip), vehicle: saline
[11] = dose: 100.0 mg/kg/injection, schedule: Q01DX009 (ip), vehicle: saline
[12] = dose: 60.0 mg/kg/injection, schedule: Q01DX005 (ip), vehicle: saline with Tween-80
[13] = dose: 120.0 mg/kg/injection, schedule: Q01DX005 (ip), vehicle: saline with Tween-80
[14] = dose: 240.0 mg/kg/injection, schedule: Q01DX005 (ip), vehicle: saline with Tween-80
[15] = dose: 60.0 mg/kg/injection, schedule: Q01DX005 (ip), vehicle: Klucel (hydroxypropylcellulose) (HPC)
[16] = dose: 120.0 mg/kg/injection, schedule: Q01DX005 (ip), vehicle: Klucel (hydroxypropylcellulose) (HPC)
[17] = dose: 240.0 mg/kg/injection, schedule: Q01DX005 (ip), vehicle: Klucel (hydroxypropylcellulose) (HPC)

Measured: T/C

O=[N+]([O-])c1ccc(Sc2ccc(Cl)cc2)c2nonc12
inactive: [1] 105 % of control | [2] 101 % of control | [3] 93 % of control

CC(C)CCC(C)C1CCC2C3CC([N+](=O)[O-])=C4CC(OC(=O)c5ccccc5)CCC4(C)C3CCC12C (stereo unspecified)
inactive: dose: 100.0 mg/kg/injection, schedule: Q04DX003 (ip), vehicle: saline with Tween-80 90 % of control | dose: 200.0 mg/kg/injection, schedule: Q04DX003 (ip), vehicle: saline with Tween-80 90 % of control | dose: 400.0 mg/kg/injection, schedule: Q04DX003 (ip), vehicle: saline with Tween-80 90 % of control

CCCCCCCCCCCC[N+]1(CC)CCOCC1
inactive: dose: 3.12 mg/kg/injection, schedule: Q01DX009 (ip), vehicle: saline 106 % of control | dose: 6.25 mg/kg/injection, schedule: Q01DX009 (ip), vehicle: saline 101 % of control | [4] 101 % of control

CSc1nccn2c(C)nnc12
inactive: dose: 100.0 mg/kg/injection, schedule: Q01DX001 (ip), vehicle: suspension in saline 92 % of control | dose: 200.0 mg/kg/injection, schedule: Q01DX001 (ip), vehicle: suspension in saline 100 % of control

CSC(SC)(SC)SC
inactive: [5] 94 % of control | [6] 109 % of control

CC1CCC2(OC1)OC1CC3C4CC=C5CC(OC6OC(CO)C(OC7OC(C)C(OC8OC(C)C(O)C(O)C8O)C(O)C7O)C(O)C6OC6OC(C)C(O)C(O)C6O)CCC5(C)C4CCC3(C)C1C2C (stereo unspecified)
inactive: dose: 0.62 mg/kg/injection, schedule: Q01DX009 (ip), vehicle: saline 106 % of control | dose: 1.25 mg/kg/injection, schedule: Q01DX009 (ip), vehicle: saline 91 % of control | dose: 2.5 mg/kg/injection, schedule: Q01DX009 (ip), vehicle: saline 90 % of control

COc1ccc(C(=O)c2ccccc2)cc1
inactive: [7] 105 % of control | [8] 108 % of control | [9] 102 % of control | dose: 400.0 mg/kg/injection, schedule: Q01DX009 (ip), vehicle: Klucel (hydroxypropylcellulose) (HPC) 98 % of control

N#C/C(=C\c1ccc(Cl)cc1)c1ccccc1
inactive: [5] 96 % of control | [10] 100 % of control | [6] 95 % of control | [11] 98 % of control and 96 % of control | dose: 200.0 mg/kg/injection, schedule: Q01DX009 (ip), vehicle: saline with Tween-80 98 % of control | dose: 200.0 mg/kg/injection, schedule: Q01DX009 (ip), vehicle: saline 99 % of control and 92 % of control | dose: 400.0 mg/kg/injection, schedule: Q01DX009 (ip), vehicle: saline with Tween-80 100 % of control | dose: 400.0 mg/kg/injection, schedule: Q01DX009 (ip), vehicle: saline 90 % of control and 91 % of control

COSc1ccc(C)cc1
inactive: dose: 100.0 mg/kg/injection, schedule: Q04DX003 (ip), vehicle: saline 108 % of control | dose: 200.0 mg/kg/injection, schedule: Q04DX003 (ip), vehicle: saline 100 % of control

Cc1[nH]c2ccc(N(C)C)cc2c(=O)c1Cc1c(C)[nH]c2ccc(N(C)C)cc2c1=O
inactive: [12] 92 % of control | [13] 89 % of control

CC(C)=CCc1c2c(c3occ(-c4ccc(O)cc4)c(=O)c3c1O)C=CC(C)(C)O2
inactive: dose: 25.0 mg/kg/injection, schedule: Q01DX009 (ip), vehicle: Klucel (hydroxypropylcellulose) (HPC) 90 % of control | [7] 90 % of control | [8] 88 % of control | [9] 88 % of control

CC1C(C(=O)c2ccccc2)=CNc2ccccc21 (stereo unspecified)
inactive: dose: 100.0 mg/kg/injection, schedule: Q01DX001 (ip), vehicle: saline with Tween-80 91 % of control | dose: 200.0 mg/kg/injection, schedule: Q01DX001 (ip), vehicle: saline with Tween-80 96 % of control | dose: 400.0 mg/kg/injection, schedule: Q01DX001 (ip), vehicle: saline with Tween-80 92 % of control

CC1=C(C/C=C(\C)CCCC(C)CCCC(C)CCCC(C)C)C(=O)c2ccccc2C1=O (stereo unspecified)
inactive: dose: 12.5 mg/kg/injection, schedule: Q01DX009 (ip), vehicle: olive oil, sesame oil, peanut oil 102 % of control | dose: 25.0 mg/kg/injection, schedule: Q01DX009 (ip), vehicle: olive oil, sesame oil, peanut oil 105 % of control | dose: 50.0 mg/kg/injection, schedule: Q01DX001 (ip), vehicle: olive oil, sesame oil, peanut oil 92 % of control | dose: 50.0 mg/kg/injection, schedule: Q01DX009 (ip), vehicle: olive oil, sesame oil, peanut oil 101 % of control | dose: 100.0 mg/kg/injection, schedule: Q01DX001 (ip), vehicle: olive oil, sesame oil, peanut oil 99 % of control | dose: 100.0 mg/kg/injection, schedule: Q01DX009 (ip), vehicle: olive oil, sesame oil, peanut oil 100 % of control | dose: 200.0 mg/kg/injection, schedule: Q01DX001 (ip), vehicle: olive oil, sesame oil, peanut oil 99 % of control | dose: 200.0 mg/kg/injection, schedule: Q01DX009 (ip), vehicle: olive oil, sesame oil, peanut oil 101 % of control

CCOC(=O)C(Cc1ccc(O)cc1)NC(=O)C1Cc2c([nH]c3ccccc23)C=N1 (stereo unspecified)
inactive: [12] 100 % of control | [13] 102 % of control | [14] 106 % of control

O=c1[nH]c2cc(Cl)ccc2nc1/C=C(\O)c1ccc([N+](=O)[O-])cc1
inactive: [15] 101 % of control | [16] 96 % of control | [17] 89 % of control

CC(=O)Nc1c(C)ncn(-c2ccccc2)c1=O
inactive: dose: 60.0 mg/kg/injection, schedule: Q01DX005 (ip), vehicle: saline 95 % of control | dose: 120.0 mg/kg/injection, schedule: Q01DX005 (ip), vehicle: saline 100 % of control | dose: 240.0 mg/kg/injection, schedule: Q01DX005 (ip), vehicle: saline 101 % of control

NC(N)=NCC1CCCCCCN1 (stereo unspecified)
inactive: [4] 106 % of control | dose: 25.0 mg/kg/injection, schedule: Q01DX009 (ip), vehicle: saline 100 % of control | [10] 104 % of control | [11] 104 % of control

O=[N+]([O-])c1cccc(N=Nn2cccc2)c1
inactive: [3] 100 % of control | [5] 100 % of control | [6] 109 % of control

O=c1[nH]nc(-c2ccc([N+](=O)[O-])o2)o1
inactive: [1] 101 % of control | [2] 106 % of control | [3] 97 % of control | [5] 99 % of control

C#CC(=O)CCC
inactive: dose: 3.75 mg/kg/injection, schedule: Q01DX005 (ip), vehicle: saline with Tween-80 113 % of control | dose: 7.5 mg/kg/injection, schedule: Q01DX005 (ip), vehicle: saline with Tween-80 106 % of control | dose: 15.0 mg/kg/injection, schedule: Q01DX005 (ip), vehicle: saline with Tween-80 105 % of control

O/N=C(/c1ccccc1)n1nnc2ccccc21
inactive: [12] 118 % of control | [13] 106 % of control | [14] 105 % of control

CCCCc1c(OCC)cc2n(CC)c3ccccc3n2c1=O
inactive: [12] 107 % of control | [13] 94 % of control | [14] 94 % of control

COC(=O)C12Oc3ccc(-c4ccc5c(c4O)C(=O)C4=CCC(C)C(O)C4(C(=O)OC)O5)c(O)c3C(=O)C1=CCC(C)C2O (stereo unspecified)
inactive: dose: 2.5 mg/kg/injection, schedule: Q01DX009 (ip), vehicle: saline with Tween-80 91 % of control | dose: 5.0 mg/kg/injection, schedule: Q01DX009 (ip), vehicle: saline with Tween-80 95 % of control | dose: 10.0 mg/kg/injection, schedule: Q01DX009 (ip), vehicle: saline with Tween-80 88 % of control

CCOC(=O)c1[nH]c(=O)c2cccnc2c1O
inactive: dose: 30.0 mg/kg/injection, schedule: Q01DX005 (ip), vehicle: Klucel (hydroxypropylcellulose) (HPC) 97 % of control | [15] 94 % of control and 98 % of control | [16] 106 % of control and 96 % of control | [17] 113 % of control

CC1(C)CC(=O)NC(=O)N1
inactive: dose: 50.0 mg/kg/injection, schedule: Q01DX005 (ip), vehicle: saline with Tween-80 99 % of control | dose: 100.0 mg/kg/injection, schedule: Q01DX005 (ip), vehicle: saline with Tween-80 94 % of control | dose: 200.0 mg/kg/injection, schedule: Q01DX005 (ip), vehicle: saline with Tween-80 104 % of control
